Reference: article PMC6768041 (Chemistry Central Journal, 2018)

How the values were obtained:
[1] = test system: MAO-B; conditions: at high concentrations 100 µM; cited from earlier work
[2] = DPPH radical scavenging assay; conditions: mean ± SEM, n = 3
Experimental: DPPH (2,2-diphenyl-1-picryl-hydrazyl-hydrate) free radical process is an antioxidant assay based on electron-transfer that turns violet color in ethanol. The antioxidant activity was based on free radical scavenging effect towards stable DPPH• radical upon spectrophotometric reaction according to the method reported in the literature. Briefly, solutions of synthesized compounds were prepared in fifty milliliters of various concentrations (25, 50, 75, and 100) µg/mL dissolved in methanol, was added to 5 mL of a 0.004% methanol solution of DPPH. The stock solution was prepared with 0.01% DPPH• in ethanol/water (1:1). While sample solutions were prepared as 5 mL DPPH• solution was mixed with 5 mL ascorbic acid solution then shaken vigorously and kept in the dark at 37 °C. The samples were incubated at the 37 °C temperature for 30 min in the dark chamber subsequently, absorbance was measured. The marketable recognized antioxidant, ascorbic acid was utilized for contrast or as a positive control. Initially, the blank spectrum for ethanol/water was recorded subsequently the spectrophotometric titration was carried out with various concentrations of synthesized compounds. The absorbance was recorded at 517 nm with UV/Vis Epoch ELISA reader, and antioxidant activity was measured as a decrease in absorbance of DPPH•. The IC50 values of free radical DPPH, based on control reading were calculated by the following equation. %inhibition of DPPH radical=Abr-Aar/Abr×100 where Abr is the absorbance prior to reaction and Aar is the absorbance after reaction with DPPH•.

[3] = Hydrogen peroxide scavenging (H2O2) assay; conditions: mean ± SEM, n = 3; read-out: H2O2 radical scavenging IC50
Experimental: Amongst the reactive oxygen species (ROS), H2O2 is an essential radical as even though it is not lethal of its own accord, but can be changed to further even highly toxic radicals, for instance, OH^• by hypochlorous acid or Fenton reaction by the oxidases enzymes. A solution of H2O2 (40 µM) was added in phosphate buffer saline ([…] pH 7.4). Different quantities of test and references compounds in DMSO were added to 2 mL of hydrogen peroxide solution in buffer solution. Subsequently, upon to 10 min, the absorbance was calculated at 230 nm against a blank solution including phosphate buffer without H2O2 [31]. The percentage of scavenging H2O2 was estimated by the formula in this way: %ScavengingH2O2=AS-AT/Ai×100 where AS is the absorbance of control and AT is the absorbance of the test.

[4] = test system: monoamine oxidase-B; conditions: cited from earlier work
[5] = biological target: T1, hMAO-A (Homo sapiens, UniProt P21397); assay: hMAO-A inhibition, Amplex Red fluorometric assay; type: biochemical; conditions: for Selectivity index: IC50 (MAO-A)/IC50 (MAO-B); for IC50: recombinant hMAO-A, p-tyramine substrate, mean SEM;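 on all read-outs here: recombinant human MAO-A and MAO-B from baculovirus-infected insect cell microsomes, H2O2 formation detected fluorometrically via Amplex Red with horseradish peroxidase, background from enzyme-free wells subtracted, distilled water negative control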
T1 construct: host or cells: insect cells (BTI-TN-5B14), recombinant baculovirus
T1 sequence (P21397 1-527): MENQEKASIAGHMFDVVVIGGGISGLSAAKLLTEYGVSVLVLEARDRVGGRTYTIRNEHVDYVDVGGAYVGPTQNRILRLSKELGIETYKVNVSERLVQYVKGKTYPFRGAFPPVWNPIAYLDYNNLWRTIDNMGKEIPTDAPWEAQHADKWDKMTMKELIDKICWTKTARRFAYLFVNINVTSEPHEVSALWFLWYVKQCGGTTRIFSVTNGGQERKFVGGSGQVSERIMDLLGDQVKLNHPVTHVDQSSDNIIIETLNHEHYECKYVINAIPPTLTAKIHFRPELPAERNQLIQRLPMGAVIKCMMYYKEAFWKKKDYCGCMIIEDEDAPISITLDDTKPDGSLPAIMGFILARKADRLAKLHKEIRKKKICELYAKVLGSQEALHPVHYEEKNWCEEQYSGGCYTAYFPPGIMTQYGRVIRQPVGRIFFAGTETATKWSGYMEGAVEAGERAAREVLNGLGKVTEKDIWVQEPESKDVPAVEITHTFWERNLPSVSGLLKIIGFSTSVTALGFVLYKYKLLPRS
Description: (§3) The biological hMAO activity evaluation of the test drugs was examined by quantifying their action on the generation of H2O2 by p-tyramine (general substrate for hMAO-B and hMAO-A), utilizing the Amplex Red MAO assay kit (Sigma USA) and MAO isoforms (microsomal) obtained from insect cells (BTI-TN-5B14) expressed as recombinant baculovirus consisting cDNA probes for hMAO-A or hMAO-B. Reactions were monitored by thin layer chromatography TLC executed over silica gel precoated plates (0.25 mm) purchased from Merck, envisioned of single spots was carried in iodine and UV chambers, in mobile media TLC- Benzene:Chloroform (7:3).
(§4) All synthesized compounds were evaluated for their capability to inhibit the MAO-A and MAO-B isoforms of human MAO by a fluorometric method. The MAO inhibitory property of the test compounds was examined with the recombinant human enzymes using an Amplex Red Monoamine Oxidase Assay Kit (Sigma USA). The incessant peroxidase-linked photometric assay was performed on the fluorometer. […] Distilled water was used as a negative control. In brief, 0.1 mL of sodium phosphate buffer (0.05 M, pH 7.4) with the test new compounds/reference inhibitors in different concentrations and sufficient quantity of recombinant hMAO-A or hMAO-B requisite and in step to complete our investigational protocol with the equal reaction velocity, (hMAO-A: 1.1 mg protein; explicit activity: 150 nmol of p-tyramine oxidized to p-hydroxyphenylacetaldehyde/min/mg protein; hMAO-B: 7.5 mg protein; explicit activity: 22 nmol of p-tyramine changed/min/mg protein) were incubated for 15 min at 37 °C, placed in the dark fluorometric compartment. After incubation, the effect was attained through the addition of 200 mM Amplex Red reagent (final concentrations), 1 mM p-tyramine, and 1 U/mL horseradish peroxidase. Finally, the generation of hydrogen peroxide and, subsequently, of resorufin was measured at 37 °C in fluorescence reader (λemission, 585 nm, λexcitation, 530 nm) after 15 min, by the time fluorescence amplified linearly. All the control experiments were performed concurrently by changing the reference inhibitors and test compounds with suitable dilutions in the solvents. Moreover, the activity of abovementioned evaluated compounds to alter the fluorescence produced in the combination reaction by (e.g. for reacting with Amplex Red reagent directly) non-enzymatic inhibition was identified by addition of these compounds to solutions having just the Amplex Red reagent in a sodium phosphate buffer. […] The fluorescence reading was computed by subtraction of the background activity and was evaluated from wells with all components not including the hMAO isoforms that was substituted by a sodium phosphate buffer solution. All data was processed in Microsoft Excel, to calculate IC50 values.

[6] = biological target: T2, hMAO-B (Homo sapiens, UniProt P27338); assay: hMAO-B inhibition, Amplex Red fluorometric assay; type: biochemical; conditions: recombinant hMAO-B, p-tyramine substrate; mean SEM
T2 construct: host or cells: insect cells (BTI-TN-5B14), recombinant baculovirus
T2 sequence (P27338 1-520): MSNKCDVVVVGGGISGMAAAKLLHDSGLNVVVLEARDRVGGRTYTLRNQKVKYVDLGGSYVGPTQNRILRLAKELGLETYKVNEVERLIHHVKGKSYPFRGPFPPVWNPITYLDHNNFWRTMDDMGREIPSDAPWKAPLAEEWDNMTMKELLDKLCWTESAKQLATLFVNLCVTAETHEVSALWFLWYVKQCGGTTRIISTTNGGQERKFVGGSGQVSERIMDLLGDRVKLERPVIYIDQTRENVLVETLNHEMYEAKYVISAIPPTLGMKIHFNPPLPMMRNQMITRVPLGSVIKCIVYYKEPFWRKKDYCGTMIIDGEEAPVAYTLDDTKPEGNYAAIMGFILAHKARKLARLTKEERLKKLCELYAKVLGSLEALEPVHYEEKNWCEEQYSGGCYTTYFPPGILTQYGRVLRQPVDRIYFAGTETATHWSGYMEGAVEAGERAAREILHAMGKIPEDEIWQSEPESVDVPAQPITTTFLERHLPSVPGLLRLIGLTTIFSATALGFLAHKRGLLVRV
Description: as §3, §4

[7] = test system: MAO-A; conditions: cited from earlier work
[8] = biological target: T2, hMAO-B; assay: Enzyme kinetics of MAO-B (Lineweaver–Burk plots); type: biochemical; conditions: several inhibitor concentrations, tyramine substrate
Experimental: (§1) A set of Lineweaver–Burk plots was constructed in the presence and absence of different concentrations of compound 7 and 5 for hMAO-A and hMAO-B respectively. The graph comprises of five plots, every plot raised by quantifying MAO-B and MAO-A catalytic rate at various concentrations of substrate (0.5–5.0 µM).
(§2) Kinetic constants of steady-state (Vmax, maximum rate, and Km, Michaelis constant,) were measured by studying the effects of substrate concentration on the primary rate of reaction of MAO-A or MAO-B in absence and presence of compounds at diverse concentrations. To examine the mode of action by synthesized derivatives all of them were solubilized in dimethyl sulfoxide, with the concentration of 1%, and utilized in a wide concentration range. Construction of Lineweaver–Burk plots illustrated the mode of MAO inhibition. Selectivity index SI (Ki (MAO-A)/Ki (MAO-B)) was also computed. Enzyme kinetics for the interaction of the compounds with the MAO enzymes was computed on the GraphPad Prism 7 software.

[9] = biological target: T1, hMAO-A; assay: Enzyme kinetics of MAO-A (Lineweaver–Burk plots); type: biochemical; conditions: tyramine substrate
Experimental: as §1, §2

[10] = test system: rMAO-B; conditions: cited from earlier work
[11] = biological target: T1, hMAO-A; conditions: cited from earlier work
[12] = test system: rMAO-A; conditions: cited from earlier work

Row | SMILES | IC50 [2] [µM] | IC50 [3] [µM] | Selectivity index [5] | IC50 [5] [µM] | IC50 [6] [µM] | melting point [°C] | other results
1 | O=C(/C=C/c1ccc(O)c(O)c1)OCCc1ccccc1 [CAPE, caffeic acid phenethyl ester] | – | – | – | – | – | – | MAO-B inhibition in words [1]: inhibiting MAO-B
2 | O=C(O)/C=C/c1ccc(O)c(O)c1 [Caffeic acid, reference compound] | 9.679 ± 0.013 | 8.868 ± 0.011 | 0.512 | 11.72 ± 0.044 | 22.88 ± 0.009 | – | Monoamine oxidase-B inhibition in words [4]: did not produce significant monoamine oxidase-B inhibition; IC50 [7]: > 1000 µM; Inhibition of MAO-A activity [7]: up to 40.4%
3 | O=C(/C=C/c1ccc(O)c(O)c1)Nc1ccc([N+](=O)[O-])cc1Cl [Compound 1, (E)-N-(2-chloro-4-nitrophenyl)-3-(3,4-dihydroxyphenyl)acrylamide] | 6.39 ± 0.007 | 6.292 ± 0.007 | 0.209 | 8.87 ± 0.005 | 42.34 ± 0.077 | 230 to 231 | –
4 | O=C(/C=C/c1ccc(O)c(O)c1)Nc1ccc(Cl)cc1[N+](=O)[O-] [Compound 2, (E)-N-(4-chloro-2-nitrophenyl)-3-(3,4-dihydroxyphenyl)acrylamide] | 8.09 ± 0.042 | 8.544 ± 0.015 | 0.191 | 8.51 ± 0.017 | 44.42 ± 0.014 | 200 to 202 | –
5 | O=C(/C=C/c1ccc(O)c(O)c1)Nc1ccc(Br)cc1 [Compound 3, (E)-N-(4-bromophenyl)-3-(3,4-dihydroxyphenyl)acrylamide] | 13.56 ± 0.003 | 12.56 ± 0.021 | 0.838 | 17.72 ± 0.006 | 21.14 ± 0.025 | – | –
6 | O=C(/C=C/c1ccc(O)c(O)c1)Nc1cccc(F)c1 [Compound 4, (E)-3-(3,4-dihydroxyphenyl)-N-(3-fluorophenyl)acrylamide] | 9.19 ± 0.001 | 9.486 ± 0.017 | 0.319 | 18.47 ± 0.007 | 57.88 ± 0.029 | – | –
7 | O=C(/C=C/c1ccc(O)c(O)c1)Nc1cccc2ccccc12 [Compound 5, (E)-3-(3,4-dihydroxyphenyl)-N-(naphthalen-1-yl)acrylamide] | 20.8 ± 0.003 | 17.64 ± 0.005 | 4.653 | 50.26 ± 0.035 | 10.8 ± 0.024 | 176 to 176.3 | Vmax in Lineweaver–Burk plot (hMAO-B) [8]: same Vmax value at several concentrations
8 | COc1cc(C=O)ccc1OC(=O)/C=C/c1ccc(O)c(O)c1 [Compound 6, (E)-4-formyl-2-methoxyphenyl 3-(3,4-dihydroxyphenyl)acrylate] | 11.34 ± 0.001 | 21.69 ± 0.034 | 1.252 | 20.36 ± 0.002 | 16.25 ± 0.035 | 150 to 151 | MAO isoform selectivity in words ([5]; hMAO-A vs hMAO-B): selective for hMAO-B
9 | C=CCc1ccc(OC(=O)/C=C/c2ccc(O)c(O)c2)c(OC)c1 [Compound 7, (E)-4-allyl-2-methoxyphenyl 3-(3,4-dihydroxyphenyl)acrylate] | 11.22 ± 0.012 | 12.78 ± 0.024 | 0.291 | 7.03 ± 0.022 | 24.14 ± 0.017 | 161 to 161.7 | Mode of inhibition (hMAO-A) [9]: competitive inhibition mode
10 | Cc1ccc(C(C)C)cc1OC(=O)/C=C/c1ccc(O)c(O)c1 [Compound 8, (E)-5-isopropyl-2-methylphenyl 3-(3,4-dihydroxyphenyl)acrylate] | 11.94 ± 0.025 | 11.88 ± 0.008 | 0.724 | 19.75 ± 0.066 | 27.26 ± 0.072 | 182 to 182.6 | –
11 | O=C(/C=C/c1ccc(O)c(O)c1)Oc1cccc(O)c1 [Compound 9, (E)-3-hydroxyphenyl 3-(3,4-dihydroxyphenyl)acrylate] | 10.57 ± 0.004 | 9.907 ± 0.014 | 0.379 | 10.33 ± 0.012 | 27.25 ± 0.004 | 198 to 198.4 | –
12 | CCNC(=O)/C=C/c1ccc(O)c(O)c1 [Compound 10, (E)-3-(3,4-dihydroxyphenyl)-N-ethylacrylamide] | 11.34 ± 0.078 | 11.39 ± 0.042 | 1.947 | 25.22 ± 0.015 | 12.95 ± 0.046 | – | –
13 | O=C(/C=C/c1ccc(O)c(O)c1)Oc1ccc2ccccc2c1 [Compound 11, (E)-naphthalen-2-yl 3-(3,4-dihydroxyphenyl)acrylate] | 12.95 ± 0.031 | 11.34 ± 0.045 | 1.233 | 24.34 ± 0.011 | 21.48 ± 0.056 | 176 to 176.9 | –
14 | CC1CCC(C(C)C)C(OC(=O)/C=C/c2ccc(O)c(O)c2)C1 (stereo not shown) [Compound 12, (E)-2-isopropyl-5-methylcyclohexyl 3-(3,4-dihydroxyphenyl)acrylate] | 15.37 ± 0.054 | 14.65 ± 0.026 | 0.453 | 22.02 ± 0.018 | 48.54 ± 0.077 | – | –
15 | O=c1oc2c(O)c(O)cc3c(=O)oc4c(O)c(O)cc1c4c23 [Ellagic acid] | – | – | – | – | – | – | MAO inhibition value rMAO-B [10]: 412.24 nM rMAO-B
16 | O=C(O)c1cc(O)c(O)c(O)c1 [Gallic acid] | – | – | – | – | – | – | MAO inhibition value hMAO-A [11]: 9.49 ± 0.83 hMAO-A µM
17 | O=C1O[C@H]([C@@H](O)CO)C(O)=C1O [L-Ascorbic acid, reference compound] | – | 8.12 ± 0.082 | – | – | – | – | –
18 | O=C(O)c1ccc(O)c(O)c1 [Protocatechuic acid] | – | – | – | – | – | – | MAO inhibition value rMAO-B [10]: 2411 µM; MAO inhibition value rMAO-A [12]: 300 µM
19 | O=C(O)/C=C/c1ccccc1 [Trans-Cinnamic acid] | – | – | – | – | – | – | MAO inhibition value rMAO-B [10]: 1.21 ± 0.071 µM; MAO inhibition value rMAO-A [12]: 6.47 ± 0.73 µM
20 | O=C(/C=C/c1ccc(O)c(O)c1)O[C@H](Cc1ccc(O)c(O)c1)C(=O)O [rosmarinic acid] | – | – | – | – | – | – | Monoamine oxidase-B inhibition in words [4]: did not produce significant monoamine oxidase-B inhibition
